The NIST ThermoML archive (doi:10.1016/j.fluid.2012.09.026)
± gives the expanded uncertainty stated by the source.

What was measured:
[1] = molar heat capacity at constant volume; conditions: Vacuum adiabatic calorimetry

CCCCO [butan-1-ol]
Conditions | mass density [kg/m3] | molar heat capacity at constant volume [J/K/mol]
563.04 K, 4340 kPa, Gas, isochoric method | 203.9 ± 2.5 | –
564.02 K, 4461 kPa, Liquid, isochoric method | 270 ± 0.8 | –
565.29 K, 4559 kPa, Liquid, isochoric method | 345.9 ± 1.8 | –
568.44 K, 4598 kPa, Gas, isochoric method | 203.9 ± 4 | –
569.15 K, 4559 kPa, Gas, isochoric method | 167.7 ± 4 | –
569.8 K, 4775 kPa, Liquid, isochoric method | 270 ± 2.9 | –
572.54 K, 5138 kPa, Liquid, isochoric method | 345.9 ± 2.6 | –
574.48 K, 4178 kPa, Gas, isochoric method | 113.76 ± 0.56 | –
577.73 K, 5059 kPa, Gas, isochoric method | 203.9 ± 0.9 | –
580.8 K, 5000 kPa, Gas, isochoric method | 167.7 ± 0.8 | –
582.21 K, 5647 kPa, Liquid, isochoric method | 270 ± 1.4 | –
583.19 K, 6118 kPa, Liquid, isochoric method | 345.9 ± 1.1 | –
584.19 K, 10275 kPa, Liquid, isochoric method | 470 ± 1.2 | –
588.79 K, 5613 kPa, Gas, isochoric method | 203.9 ± 0.7 | –
590.87 K, 4586 kPa, Gas, isochoric method | 113.76 ± 0.43 | –
593.16 K, 5452 kPa, Gas, isochoric method | 167.7 ± 0.5 | –
593.16 K, 6393 kPa, Liquid, isochoric method | 270 ± 0.7 | –
600.42 K, 6162 kPa, Gas, isochoric method | 203.9 ± 0.7 | –
604.17 K, 5852 kPa, Gas, isochoric method | 167.7 ± 0.5 | –
605.17 K, 4925 kPa, Gas, isochoric method | 113.76 ± 0.39 | –
605.88 K, 7197 kPa, Liquid, isochoric method | 270 ± 0.9 | –
606.77 K, 8197 kPa, Liquid, isochoric method | 345.9 ± 1.1 | –
614.97 K, 6834 kPa, Gas, isochoric method | 203.9 ± 0.6 | –
616.27 K, 6275 kPa, Gas, isochoric method | 167.7 ± 0.5 | –
616.28 K, 5197 kPa, Gas, isochoric method | 113.76 ± 0.38 | –
[1], 520 K, Gas, Specific volume=0.016529 m3/kg | – | 236.45 ± 14
[1], 520 K, Liquid, Specific volume=0.001879 m3/kg | – | 220.88 ± 13
[1], 530 K, Gas, Specific volume=0.013513 m3/kg | – | 243.12 ± 15
[1], 530 K, Liquid, Specific volume=0.001974 m3/kg | – | 220.22 ± 13
[1], 533.45 K, Gas, Specific volume=0.012425 m3/kg | – | 246.16 ± 15
[1], 533.45 K, Liquid, Specific volume=0.002001 m3/kg | – | 220.22 ± 13
[1], 540 K, Gas, Specific volume=0.010776 m3/kg | – | 252.01 ± 15
[1], 540 K, Liquid, Specific volume=0.002103 m3/kg | – | 220.14 ± 13
[1], 550 K, Gas, Specific volume=0.008333 m3/kg | – | 260.91 ± 16
[1], 550 K, Liquid, Specific volume=0.002288 m3/kg | – | 220.88 ± 13
[1], 560 K, Gas, Specific volume=0.005682 m3/kg | – | 281.74 ± 17
[1], 560 K, Liquid, Specific volume=0.002717 m3/kg | – | 228.37 ± 14
[1], 561 K, Gas, Specific volume=0.005319 m3/kg | – | 286.85 ± 17
[1], 561 K, Liquid, Specific volume=0.002792 m3/kg | – | 235.71 ± 14
[1], 562 K, Gas, Specific volume=0.004879 m3/kg | – | 294.26 ± 18
[1], 562 K, Liquid, Specific volume=0.002985 m3/kg | – | 247.57 ± 15
[1], 563 K, Gas, Specific volume=0.0046 m3/kg | – | 303.9 ± 18
[1], 563 K, Liquid, Specific volume=0.003108 m3/kg | – | 258.68 ± 15
[1], 563.21 K, Fluid (supercritical or subcritical phases), Mass density=270 kg/m3 | – | 356.16 ± 22
[1], 563.39 K, Fluid (supercritical or subcritical phases), Mass density=270 kg/m3 | – | 317.24 ± 19
[1], 563.57 K, Fluid (supercritical or subcritical phases), Mass density=270 kg/m3 | – | 306.86 ± 18
[1], 564.81 K, Fluid (supercritical or subcritical phases), Mass density=270 kg/m3 | – | 294.63 ± 18
[1], 564.99 K, Fluid (supercritical or subcritical phases), Mass density=270 kg/m3 | – | 292.04 ± 18
[1], 565.17 K, Fluid (supercritical or subcritical phases), Mass density=270 kg/m3 | – | 290.19 ± 17
[1], 566.6 K, Fluid (supercritical or subcritical phases), Mass density=270 kg/m3 | – | 282.4 ± 17
[1], 566.77 K, Fluid (supercritical or subcritical phases), Mass density=270 kg/m3 | – | 280.18 ± 17
[1], 566.95 K, Fluid (supercritical or subcritical phases), Mass density=270 kg/m3 | – | 279.81 ± 17
[1], 567.13 K, Fluid (supercritical or subcritical phases), Mass density=270 kg/m3 | – | 277.59 ± 17
[1], 569.09 K, Fluid (supercritical or subcritical phases), Mass density=270 kg/m3 | – | 269.8 ± 16
[1], 569.26 K, Fluid (supercritical or subcritical phases), Mass density=270 kg/m3 | – | 269.06 ± 16
[1], 569.44 K, Fluid (supercritical or subcritical phases), Mass density=270 kg/m3 | – | 268.32 ± 16
[1], 573.52 K, Fluid (supercritical or subcritical phases), Mass density=270 kg/m3 | – | 259.06 ± 16
[1], 573.67 K, Fluid (supercritical or subcritical phases), Mass density=270 kg/m3 | – | 257.94 ± 15
[1], 582.51 K, Fluid (supercritical or subcritical phases), Mass density=270 kg/m3 | – | 246.83 ± 15
[1], 582.69 K, Fluid (supercritical or subcritical phases), Mass density=270 kg/m3 | – | 246.08 ± 15
[1], 582.86 K, Fluid (supercritical or subcritical phases), Mass density=270 kg/m3 | – | 246.08 ± 15
[1], 583.22 K, Fluid (supercritical or subcritical phases), Mass density=270 kg/m3 | – | 245.34 ± 15
[1], 590.92 K, Fluid (supercritical or subcritical phases), Mass density=270 kg/m3 | – | 240.15 ± 14
[1], 591.07 K, Fluid (supercritical or subcritical phases), Mass density=270 kg/m3 | – | 240.52 ± 14
[1], 591.23 K, Fluid (supercritical or subcritical phases), Mass density=270 kg/m3 | – | 239.41 ± 14
[1], 591.62 K, Fluid (supercritical or subcritical phases), Mass density=270 kg/m3 | – | 239.41 ± 14
[1], 598.76 K, Fluid (supercritical or subcritical phases), Mass density=270 kg/m3 | – | 235.34 ± 14
[1], 599.1 K, Fluid (supercritical or subcritical phases), Mass density=270 kg/m3 | – | 236.08 ± 14
[1], 599.28 K, Fluid (supercritical or subcritical phases), Mass density=270 kg/m3 | – | 235.71 ± 14
[1], 599.63 K, Fluid (supercritical or subcritical phases), Mass density=270 kg/m3 | – | 234.97 ± 14
[1], 605.17 K, Fluid (supercritical or subcritical phases), Mass density=270 kg/m3 | – | 232.74 ± 14
[1], 605.35 K, Fluid (supercritical or subcritical phases), Mass density=270 kg/m3 | – | 232.37 ± 14
[1], 606.21 K, Fluid (supercritical or subcritical phases), Mass density=270 kg/m3 | – | 232 ± 14
[1], 606.56 K, Fluid (supercritical or subcritical phases), Mass density=270 kg/m3 | – | 232 ± 14
[1], 609.49 K, Fluid (supercritical or subcritical phases), Mass density=270 kg/m3 | – | 231.26 ± 14
[1], 609.67 K, Fluid (supercritical or subcritical phases), Mass density=270 kg/m3 | – | 230.52 ± 14
[1], 609.84 K, Fluid (supercritical or subcritical phases), Mass density=270 kg/m3 | – | 230.89 ± 14
[1], 621.18 K, Fluid (supercritical or subcritical phases), Mass density=270 kg/m3 | – | 227.55 ± 14
[1], 621.53 K, Fluid (supercritical or subcritical phases), Mass density=270 kg/m3 | – | 226.81 ± 14
[1], 622.22 K, Fluid (supercritical or subcritical phases), Mass density=270 kg/m3 | – | 226.07 ± 14
[1], 637.42 K, Fluid (supercritical or subcritical phases), Mass density=270 kg/m3 | – | 225.33 ± 14
[1], 637.77 K, Fluid (supercritical or subcritical phases), Mass density=270 kg/m3 | – | 223.11 ± 13

Conditions | mass density [kg/m3]
563.04 K, Liquid, Isochoric Breaking Point | 270 ± 1.3
